# Values quoted from earlier work, collected in patent US20240374519A1, “COMPOSITIONS FOR SUPPLEMENTING PRODUCTS WITH THERAPEUTIC AGENTS AND METHODS OF USE THEREOF” (DISRUPTION LABS, INC., priority 2021, published 2024).
compound,measurement,value
C=C(C)[C@@H]1CCC(C)=C[C@H]1c1c(O)cc(CCCCC)cc1O [Cannabidiol],log P,> 5
